# In patent US20150250166A1, “NOOTKATONE AS AN INSECTICIDE AND INSECT REPELLENT” (ALLYLIX, INC., priority 2012, published 2015):
# What was measured:
# Assay type in all cases: in vivo
# [1] = test system: adult bed bugs (Cimex lectularius); assay: Direct spray knockdown of adult bed bugs; details: for bed bug knockdown activity, in words: early time points; for bed bugs exhibiting knockdown, average count of 5 trials (of 10): 10% nootkatone, 0.1% BHT in isopropanol
# Procedure: (§1) A direct spray formulation, containing 10% nootkatone (from Bedoukian Research, Inc., Product No. 800; Danbury, Conn.), 0.1% butylated hydroxytoluene (BHT) in isopropanol, stored at ambient temperature and humidity, was tested for efficacy for knockdown and mortality among adult bed bugs (Cimex lectularius). Adult bed bugs (ICR, Baltimore, Md.) used in this study were blood fed within 7 days of testing. The bed bugs were anesthetized with CO2 and five groups of ten bed bugs were transferred into 9 dram vials at least 2 hours prior to testing. Just prior to treatment, the bed bugs were transferred to 16 oz. paper solo cups with cloth glued to the bottom on the inside of the cup and a screened lid. Each replicate was then sprayed manually, using a 2-3 oz. pump sprayer, with 1 gram±0.1 grams of the 10% nootkatone formulation. Each replicate was sprayed separately from a vertical distance of 6 inches above the bed bugs. The spray bottle was weighed before and after treating each replicate to confirm the weight of the test sample dispensed. All spraying took place in a vented, stainless steel Peet Grady chamber (6×6×6 ft). […] Knockdown was defined as the inability of a bed bug to right itself when placed on its back. After the five minute time point, the bed bugs were transferred to recovery containers that hold 16 oz. paper solo cups equipped with screened lids. A further knockdown study took place at 15 minutes post treatment. Serving as control samples, five replicates of 10 adult bed bugs were treated with isopropyl alcohol alone and five replicates of 10 adult bed bugs were treated with water, following the protocol outlined above.
# (§2) A direct spray formulation, containing 5% nootkatone (from Bedoukian Research, Inc., Product No. 800; Danbury, Conn.), 0.1% butylated hydroxytoluene (BHT) in acetone, stored at ambient temperature and humidity, was tested for efficacy for knockdown and mortality among adult bed bugs (Cimex lectularius) using the same procedure as described in Example 1 above. Five replicates of ten bed bugs were sprayed with 1.0 g±20% of a 5% nootkatone in acetone solution stabilized with 0.1% BHT. An additional five replicates were treated with 1.0 g±20% of tap water to serve as a control.
# [2] = test system: adult bed bugs (Cimex lectularius); assay: Direct spray mortality of adult bed bugs; details: for bed bug mortality, in words: within the 15 minute knockdown study; for Alive, Treatment (bed bug count, of 50) / Dead, Treatment (bed bug count, of 50) / Moribund, Treatment (bed bug count, of 50): 5% nootkatone, 0.1% BHT in acetone
# Procedure: as §1
# After the knockdown counts were complete, the bed bugs were maintained in treatment chambers, in the laboratory at ambient light, temperature, and humidity conditions. Mortality counts were made at 24 and 48 hours post treatment. […] Table 4 below provides the average mortality data for the five replicates of bed bugs treated with water, isopropanol alone, or with 10% nootkatone in isopropanol at 24 and 48 hours.
# as §2
# After the knockdown counts were complete, the bed bugs were maintained in treatment chambers, in the laboratory at ambient light, temperature, and humidity conditions. Mortality counts were made at 1, 2, 3, 4 and 5 days post treatment. […] Table 5 below provides the mortality data for the replicates of bed bugs treated with water (control) or with 5% nootkatone in acetone.
# [3] = test system: adult cat fleas (Ctenocephalides felis); details: 10% nootkatone in isopropanol, direct spray; 24 hours
# Procedure: A direct spray formulation, containing 10% nootkatone, 0.1% butylated hydroxytoluene (BHT) in isopropanol, stored at ambient temperature and humidity, was tested for efficacy for knockdown and mortality among adult cat fleas (Ctenocephalides felis). Five replicates of 10 adult cat fleas (El Labs Inc (Soquel, Calif.)) were emptied from 9 dram vials into 5 gallon HDPE Payliner® pail liners lined with paper towels. Each replicate was sprayed manually with 1 gram±0.1 grams of the 10% nootkatone formulation from the rim of the pail liner. The spray bottle was weighed before and after treating each replicate to confirm the weight of the test sample dispensed. Five control replicates of 10 adult cat fleas were treated with isopropyl alcohol, following the same protocol. The study provided a single treatment of 10% nootkatone formulation or isopropyl alcohol. All spraying took place in a vented, stainless steel Peet Grady chamber (6×6×6 ft).
# Following the knockdown studies, the payliners containing cat fleas were kept at ambient temperature and humidity in the laboratory. Mortality of cat fleas following isopropanol (control) and 10% nootkatone treatments was then recorded 24 hours after solution administration. Dead fleas were confirmed by probing the fleas or exhaling into the payliner to ensure lack of movement. […] Cat fleas that were able to jump were recorded as being alive. The number of moribund and dead fleas per replicate were added together for a total mortality count and divided by the number of fleas tested to derive percent mortality.
# [4] = test system: adult bed bugs (Cimex lectularius); assay: Bed bug repellency, treated versus untreated filter paper halves in Petri dish chamber; details: for Repellency (%) Treatment Group / bed bugs on Nootkatone treatment filter paper (count, of 50) / Repellency (summary of bedbug repellency): 0.1% BHT; for Repellency (summary of bedbug repellency): Day 1
# [5] = time 1 (head: Minutes; text: days post treatment)
# [6] = time 2 (head: Minutes; text: days post treatment)
# [7] = time 3 (head: Minutes; text: days post treatment)
# [8] = time 4 (head: Minutes; text: days post treatment)
# [9] = time 5 (head: Minutes; text: days post treatment)
# [10] = 10% nootkatone in isopropanol, 24 hr post treatment
# [11] = 10% nootkatone in isopropanol, 48 hr post treatment
# [12] = 0.50% nootkatone in acetone, Day 1, 0.5 hour
smiles,measurement,setting,value
"C=C(C)[C@@H]1CCC2=CC(=O)C[C@@H](C)[C@]2(C)C1 [nootkatone, 4,4a,5,6,7,8-hexahydro-6-isopropenyl-4,4a-dimethyl-2(3H)-naphtalenone]","bed bug knockdown compared with control, in words","[1]; 5% nootkatone in acetone, 15 minutes",no greater effect on bed bug knockdown than that observed for the control
same,"bed bug knockdown activity, in words",[1]; 5% nootkatone in acetone,some knockdown activity
same,"bed bug knockdown compared with isopropanol alone, in words","[1]; 10% nootkatone in isopropanol, 15 minutes",no greater effect on bed bug knockdown than that observed for isopropanol alone
same,"bed bug knockdown activity, in words",[1]; 10% nootkatone in isopropanol,some knockdown activity
same,"bed bugs exhibiting knockdown, average count of 5 trials (of 10)",[1]; 0.5 min post treatment,1.6
same,"bed bugs exhibiting knockdown, average count of 5 trials (of 10)",[1]; 1 min post treatment,2.6
same,"bed bugs exhibiting knockdown, average count of 5 trials (of 10)",[1]; 2 min post treatment,4.6
same,"bed bugs exhibiting knockdown, average count of 5 trials (of 10)",[1]; 3 min post treatment,5
same,"bed bugs exhibiting knockdown, average count of 5 trials (of 10)",[1]; 4 min post treatment,4.6
same,"bed bugs exhibiting knockdown, average count of 5 trials (of 10)",[1]; 5 min post treatment,4.8
same,"bed bugs exhibiting knockdown, average count of 5 trials (of 10)",[1]; 15 min post treatment,4.4
same,"bed bug mortality compared with control, in words","[2]; 5% nootkatone in acetone, 5 days",did not kill bed bugs after 5 days above mortality levels observed for the control
same,"bed bug mortality, in words",[2]; 5% nootkatone in acetone,No mortality was observed
same,"Alive, Treatment (bed bug count, of 50)",[2]; [5],50
same,"Dead, Treatment (bed bug count, of 50)",[2]; [5],0
same,"Moribund, Treatment (bed bug count, of 50)",[2]; [5],0
same,"Alive, Treatment (bed bug count, of 50)",[2]; [6],49
same,"Dead, Treatment (bed bug count, of 50)",[2]; [6],1
same,"Moribund, Treatment (bed bug count, of 50)",[2]; [6],0
same,"Alive, Treatment (bed bug count, of 50)",[2]; [7],48
same,"Dead, Treatment (bed bug count, of 50)",[2]; [7],1
same,"Moribund, Treatment (bed bug count, of 50)",[2]; [7],1
same,"Alive, Treatment (bed bug count, of 50)",[2]; [8],45
same,"Dead, Treatment (bed bug count, of 50)",[2]; [8],2
same,"Moribund, Treatment (bed bug count, of 50)",[2]; [8],3
same,"Alive, Treatment (bed bug count, of 50)",[2]; [9],42
same,"Dead, Treatment (bed bug count, of 50)",[2]; [9],5
same,"Moribund, Treatment (bed bug count, of 50)",[2]; [9],3
same,"bed bug mortality compared with isopropanol alone, in words","[2]; 10% nootkatone in isopropanol, 24 or 48 hours",did not kill bed bugs after 24 or 48 hours above mortality levels observed for isopropanol alone
same,"Alive, average bed bug count of 5 trials (of 10)",[2]; [10],6.4
same,"Dead, average bed bug count of 5 trials (of 10)",[2]; [10],3.6
same,"Moribund, average bed bug count of 5 trials (of 10)",[2]; [10],0
same,"Alive, average bed bug count of 5 trials (of 10)",[2]; [11],5.2
same,"Dead, average bed bug count of 5 trials (of 10)",[2]; [11],4.8
same,"Moribund, average bed bug count of 5 trials (of 10)",[2]; [11],0
same,"bed bug mortality, in words",[2]; 10% nootkatone in isopropanol,No mortality was observed
same,"Alive, average cat flea count of 5 trials (of 10)",[3],0
same,"Dead, average cat flea count of 5 trials (of 10)",[3],9.6
same,"Moribund, average cat flea count of 5 trials (of 10)",[3],0.4
same,Mortality (moribund plus dead) of cat fleas,[3],100%
same,Repellency (%) Treatment Group,"[4]; 0.01% nootkatone in acetone, Day 1, 1.0 hour",66.0%
same,"bed bugs on Nootkatone treatment filter paper (count, of 50)","[4]; 0.01% nootkatone in acetone, Day 1, 24.0 hour",21
same,"bedbug repellency, in words","[4]; 0.01% nootkatone in acetone, day 1 and day 2, statistically significant versus the control",moderate bedbug repellency
same,Repellency (%) Treatment Group,"[4]; 0.10% nootkatone in acetone, Day 1, 0.5 hour",94.0%
same,Repellency (%) Treatment Group,"[4]; 0.10% nootkatone in acetone, Day 1, 2.0 hour",94.0%
same,"bedbug repellency, in words","[4]; 0.1% nootkatone in acetone, day one",good bedbug repellent for one day
same,Repellency (%) Treatment Group,[4]; [12],100.0%
same,"bed bugs on Nootkatone treatment filter paper (count, of 50)",[4]; [12],0
same,"bed bugs on Nootkatone treatment filter paper (count, of 50)","[4]; 0.50% nootkatone in acetone, Day 1, Average of time points",0.0
same,Repellency (%) Treatment Group,"[4]; 0.50% nootkatone in acetone, Day 2, 1.0 hour",88.0%
same,"bed bugs on Nootkatone treatment filter paper (count, of 50)","[4]; 0.50% nootkatone in acetone, Day 2, Average of time points",4.2
same,"bedbug repellency, in words","[4]; 0.5% nootkatone in acetone, two days",good bedbug repellent for two days
same,Repellency (summary of bedbug repellency),[4]; Nootkatone 0.010% in acetone,66.0%
same,Repellency (summary of bedbug repellency),[4]; Nootkatone 0.10% in acetone,93.6%
